Legend:
[1] = molecular target: T1, Human recombinant adenosine A2A receptors (Homo sapiens, UniProt P29274); experiment: Human adenosine A2A receptor binding assay ([3H]CGS-21680); conditions: for Ki: membranes of HEK-293 cells, 50 nM [3H]CGS-21680, 90 minutes at 25° C., read-out: hA2A Ki
T1 construct: expressed in transfected cells; host or cells: HEK-293 cells (membrane preparation)
Procedure: 2.2 Human Adenosine A2A Receptor Binding Assay
Test compound is weighed, dissolved in DMSO to make a stock solution of 10 mM, diluted with DMSO to prepare working solutions, then 100-fold diluted to the indicated concentrations. Human recombinant adenosine A2A receptors expressed in HEK-293 cells were used to prepare membranes in incubation buffer (50 mM Tris-HCl, pH 7.4, 10 mM MgCl2, 1 mM EDTA, 2 U/ml Adenosine Deaminase). Test compound or vehicle (2.2 μL) was added in 200 μL of membranes and incubated with 20 μL of 50 nM [^3H] […] Non-specific binding was estimated in the presence of 50 μM NECA (5′-N-ethylcarboxamidoadenosine). The incubation was stopped by vacuum filtration onto 0.3% PEI (polyethylenimine) presoaked GF/B filters using a harvester followed by four washes with ice-cold 50 mM Tris-HCl, pH 7.4, and the radioactivity on GF/B filtermats counted in a scintillation counter (PerkinElmer TOPCOUNT™) to determine [^3H] […] Final concentration of vehicle DMSO is 1%.
(§1) Data is fitted using the non-linear curve fitting routines in Meth-IQ software (ID Business Solutions Ltd., UK). IC50 is converted to Ki by Cheng-Prusoff equation: Ki=IC50/(1+[L]/KD) where [L] is concentration of radiolabeled ligand used in the assay.

[2] = molecular target: T2, Human recombinant adenosine A1 receptors (Homo sapiens, UniProt P30542); experiment: Human adenosine A1 receptor binding assay ([3H]DPCPX); conditions: membranes of CHO-K1 cells, 1 nM [3H]DPCPX, 90 minutes at 25° C.; read-out: hAl Ki
T2 construct: expressed in transfected cells; host or cells: CHO-K1 cells (membrane preparation)
T2 sequence (P30542 1-326): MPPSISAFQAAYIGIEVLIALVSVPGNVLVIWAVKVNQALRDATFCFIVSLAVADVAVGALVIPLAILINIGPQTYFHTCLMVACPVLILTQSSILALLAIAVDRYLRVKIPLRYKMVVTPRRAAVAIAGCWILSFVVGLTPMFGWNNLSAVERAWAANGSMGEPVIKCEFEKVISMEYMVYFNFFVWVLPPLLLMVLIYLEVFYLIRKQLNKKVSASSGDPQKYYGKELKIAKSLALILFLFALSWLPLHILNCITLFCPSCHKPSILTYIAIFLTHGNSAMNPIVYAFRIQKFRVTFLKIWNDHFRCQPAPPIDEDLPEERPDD
Procedure: 2.1 Human Adenosine A1 Receptor Binding Assay
Test compound is weighed, dissolved in DMSO to make a stock solution of 10 mM, diluted with DMSO to prepare working solutions, then 100-fold diluted to the indicated concentrations. Human recombinant adenosine A1 receptors expressed in CHO-K1 cells were used to prepare membranes in incubation buffer (20 mM HEPES (4-(2-hydroxyethyl)-1-piperazineethanesulfonic acid) pH 7.4, 10 mM MgCl2, 100 mM NaCl). Test compound or vehicle (2.2 μL) was added in 200 μL of membranes and incubated with 20 μL of 1 nM [^3H] DPCPX (8-cyclopentyl-1,3-dipropylxanthine) for 90 minutes at 25° C. Non-specific binding was estimated in the presence of 100 μM R(−)-PIA ((R)—N-(1-methyl-2-phenylethyl)adenosine). The incubation was stopped by vacuum filtration onto 0.3% PEI (polyethylenimine) presoaked GF/B filters using a harvester followed by four washes with ice-cold 50 mM Tris-HCl, pH 7.4, and the radioactivity on GF/B filtermats counted in a scintillation counter (PerkinElmer Topcount™) to determine [^3H] DPCPX specifically bound. Final concentration of vehicle DMSO is 1%.
as §1

T1 sequence (P29274 whole entry): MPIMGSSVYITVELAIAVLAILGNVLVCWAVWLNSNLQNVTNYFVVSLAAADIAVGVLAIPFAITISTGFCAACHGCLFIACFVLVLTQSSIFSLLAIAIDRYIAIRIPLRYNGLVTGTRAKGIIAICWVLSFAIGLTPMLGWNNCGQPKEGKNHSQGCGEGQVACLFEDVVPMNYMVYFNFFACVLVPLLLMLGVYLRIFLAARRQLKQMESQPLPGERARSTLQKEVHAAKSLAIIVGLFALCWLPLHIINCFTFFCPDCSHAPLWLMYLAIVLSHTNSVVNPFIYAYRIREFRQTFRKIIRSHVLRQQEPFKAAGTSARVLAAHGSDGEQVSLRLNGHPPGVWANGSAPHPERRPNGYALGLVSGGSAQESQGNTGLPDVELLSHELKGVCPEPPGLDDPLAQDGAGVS

| Ki [1] | Ki [2] | activity as dual antagonists of both A2A and A1 receptors ([1]; summary in words of the A2A and A1 binding results of Table 2) | SMILES |
| --- | --- | --- | --- |
| < 0.02 µM | 0.1 to 1 µM |  | N#Cc1cccc(-c2nc(N)nc3c2cnn3Cc2c(F)cc(N)cc2F)n1 [Compound 223, 6-[6-amino-1-[(4-amino-2,6-difluoro-phenyl)methyl]pyrazolo[3,4-d]pyrimidine-4-yl]pyridine-2-carbonitrile] |
| < 0.02 µM | 0.1 to 1 µM |  | N#Cc1cccc(-c2nc(N)nc3c2cnn3Cc2c(F)cccc2F)n1 [Compound 231, 6-(6-amino-1-(2,6-difluorobenzyl)-1H-pyrazolo[3,4-d]pyrimidine-4-yl)picolinonitrile] |
| 1 to 5 µM | 1 to 10 µM |  | N#Cc1cc(-c2nc(N)nc3c2cnn3Cc2ccc(N)cc2)ccn1 [Compound 218, 4-(6-amino-1-(4-aminobenzyl)-1H-pyrazolo[3,4-d]pyrimidine-4-yl)picolinonitrile] |
| 1 to 5 µM | > 10 µM |  | Cc1cc(Cn2ncc3c(-c4cncc(C#N)c4)nc(N)nc32)ccc1N [Compound 229, 5-(6-amino-1-(4-amino-3-methylbenzyl)-1H-pyrazolo[3,4-d]pyrimidine-4-yl)nicotinonitrile] |
| 0.02 to 0.2 µM | 0.1 to 1 µM |  | N#Cc1ccnc(-c2nc(N)nc3c2cnn3Cc2c(F)cc(N)cc2F)c1 [Compound 224, 2-[6-amino-1-[(4-amino-2,6-difluoro-phenyl)methyl]pyrazolo[3,4-d]pyrimidine-4-yl]pyridine-4-carbonitrile] |
| 0.02 to 0.2 µM | 0.1 to 1 µM |  | N#Cc1cccc(-c2nc(N)nc3c2cnn3Cc2ccc(N)cc2)n1 [Compound 215, 6-(6-amino-1-(4-aminobenzyl)-1H-pyrazolo[3,4-d]pyrimidine-4-yl)picolinonitrile] |
| < 0.02 µM | 0.1 to 1 µM |  | Cc1cc(Cn2ncc3c(-c4cccc(C#N)c4)nc(N)nc32)ccc1N [Compound 204, 3-(6-amino-1-(4-amino-3-methylbenzyl)-1H-pyrazolo[3,4-d]pyrimidine-4-yl)benzonitrile] |
| 0.02 to 0.2 µM | 0.1 to 1 µM |  | Cc1cc(Cn2ncc3c(-c4cc(C#N)ccn4)nc(N)nc32)ccc1N [Compound 228, 2-(6-amino-1-(4-amino-3-methylbenzyl)-1H-pyrazolo[3,4-d]pyrimidine-4-yl)isonicotinonitrile] |
| < 0.02 µM | 0.1 to 1 µM |  | Cc1cc(Cn2ncc3c(-c4cccc(C#N)n4)nc(N)nc32)ccc1N [Compound 227, 6-(6-amino-1-(4-amino-3-methylbenzyl)-1H-pyrazolo[3,4-d]pyrimidine-4-yl)picolinonitrile] |
| < 0.02 µM | ≤ 0.1 µM | potent activity as dual antagonists | N#Cc1cccc(-c2nc(N)nc3c2cnn3Cc2ccc(N)cc2F)c1F [Compound 203, 3-(6-amino-1-(4-amino-2-fluorobenzyl)-1H-pyrazolo[3,4-d]pyrimidine-4-yl)-2-fluorobenzonitrile] |
| 0.2 to 1 µM | 1 to 10 µM |  | N#Cc1cncc(-c2nc(N)nc3c2cnn3Cc2c(F)cccc2F)c1 [Compound 233, 5-(6-amino-1-(2,6-difluorobenzyl)-1H-pyrazolo[3,4-d]pyrimidine-4-yl)nicotinonitrile] |
| 0.02 to 0.2 µM | 0.1 to 1 µM |  | N#Cc1ccnc(-c2nc(N)nc3c2cnn3Cc2ccc(N)cc2F)c1 [Compound 220, 2-(6-amino-1-(4-amino-2-fluorobenzyl)-1H-pyrazolo[3,4-d]pyrimidine-4-yl)isonicotinonitrile] |
| 1 to 5 µM | 1 to 10 µM |  | N#Cc1cncc(-c2nc(N)nc3c2cnn3Cc2c(F)cc(N)cc2F)c1 [Compound 225, 5-[6-amino-1-[(4-amino-2,6-difluoro-phenyl)methyl]pyrazolo[3,4-d]pyrimidine-4-yl]pyridine-3-carbonitrile] |
| 1 to 5 µM | > 10 µM |  | N#Cc1cc(-c2nc(N)nc3c2cnn3Cc2c(F)cc(N)cc2F)ccn1 [Compound 226, 4-(6-amino-1-(4-amino-2,6-difluorobenzyl)-1H-pyrazolo[3,4-d]pyrimidine-4-yl)picolinonitrile] |
| 1 to 5 µM | > 10 µM |  | N#Cc1cncc(-c2nc(N)nc3c2cnn3Cc2ccc(N)cc2)c1 [Compound 217, 5-(6-amino-1-(4-aminobenzyl)-1H-pyrazolo[3,4-d]pyrimidine-4-yl)nicotinonitrile] |
| 1 to 5 µM | > 10 µM |  | N#Cc1cc(-c2nc(N)nc3c2cnn3Cc2ccc(N)cc2F)ccn1 [Compound 222, 4-(6-amino-1-(4-amino-2-fluorobenzyl)-1H-pyrazolo[3,4-d]pyrimidine-4-yl)picolinonitrile] |
